Columns and labels:
[1] = target: organophosphate hydrolase (Brevundimonas diminuta, UniProt P0A434); conditions: cited from earlier work
maize callus = format: cell-based
[2] = test system: organophosphate hydrolase in maize callus; test: Coumaphos plate screen: fluorescence of maize callus under ultraviolet light; format: cell-based; conditions: 3 ml of 1 mg/ml coumaphos per plate, two days post-transfer
[3] = test system: organophosphate hydrolase; format: biochemical; conditions: 0.5 mM amiprophos-methyl, 2 μg organophosphate hydrolase, scans every 30 seconds
[4] = test system: transgenic OPH and control callus cells; test: Growth of callus cultures on haloxon plates (prospective Example 9, FIG. 6); format: cell-based; conditions: haloxon 1, 5, 10, 50, 100 and 500 μM, six weeks, percentage growth compared to control

Compound | rate of hydrolysis by organophosphate hydrolase compared with strong alkaline / non-enzymatic hydrolysis [1] | effect on new growth from maize callus (maize callus) | also measured
demeton-S-methyl | thousands of times greater |  | 
CCOP(=S)(OCC)Oc1ccc2c(C)c(Cl)c(=O)oc2c1 [coumaphos] |  | inhibitory effect | fluorescence of non-transformed callus under ultraviolet light ([2]; non-transformed callus): did not; fluorescence of transformed callus under ultraviolet light ([2]; transformed callus): fluoresced
COP(=O)(NC(C)=O)SC (stereo not drawn) [acephate] | thousands of times greater |  | 
CCOC(=O)CC(SP(=S)(OC)OC)C(=O)OCC (stereo not drawn) [malathion] | significantly better |  | capability of the enzyme for hydrolysis [1]: poor capability
COP(=S)(NC(C)C)Oc1ccc(C)cc1[N+](=O)[O-] (stereo not drawn) [amiprophos-methyl] |  | inhibitory effect | cleavage by organophosphate hydrolase, detected by absorbance [3]: results in the absorbance of light
CCOP(=S)(OCC)SCn1c(=O)oc2cc(Cl)ccc21 [phosalone] | thousands of times greater |  | 
CCCOP(=S)(OCCC)SCC(=O)N1CCCCC1C (stereo not drawn) [piperophos] |  | inhibitory effect | 
Cc1c(Cl)c(=O)oc2cc(OP(=O)(OCCCl)OCCCl)ccc12 [haloxon] |  |  | growth of transgenic OPH cells versus control cultures [4]: ability of the transgenic OPH cells to grow at concentrations where control cultures would not

From patent US7060501B2 (priority 2002, dated 2006)
